Assay type in all cases: in vivo
For experiment [1], the system named is Puccinia triticina. In words: Wheat Brown Rust (PUCCRT) fungicidal activity. The note with it: for pest or weed control at 100 ppm: High Volume application; for pest or weed control at 121.5 g/ha: Low Volume application, 121.5 g/H. The essentials: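 Disease severity (0–100%) on first leaves compared with untreated plants gives percent control. Plants (wheat var. Yuma) received spore inoculum before or after run-off spraying with compound in acetone/Triton X-100 water, held overnight at 22° C, 100% RH, then in a 24° C greenhouse.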

Experiment [2] deals with Erysiphe cichoracearum. In words: Powdery Mildew of Cucumber (ERYSCI) fungicidal activity. The settings on record: Golovinomyces cichoracearum, 24 h, 1DP (1 Day Protectant), read-out: ERYSCI Disease Control. The protocol: Technical grades of materials were dissolved in acetone, which were then mixed with nine volumes of H2O containing 110 ppm Triton X-100. The fungicide solutions were applied onto wheat seedlings using an automated booth sprayer to run-off. All sprayed plants were allowed to air dry prior to further handling. All fungicides were evaluated using the aforementioned method for their activity vs. all target diseases, unless stated otherwise. Wheat leaf blotch and brown rust activity were also evaluated using track spray applications, in which case the fungicides were formulated as EC formulations, containing 0.1% Trycol 5941 in the spray solutions. Wheat plants (variety Yuma) were grown from seed in a greenhouse in 50% mineral soil/50% soil-less Metro mix until the first leaf was fully emerged, with 7-10 seedlings per pot. These plants were inoculated with an aqueous spore suspension of Zymoseptoria tritici either prior to or after fungicide treatments. After inoculation the plants were kept in 100% relative humidity (one day in a dark dew chamber followed by two to three days in a lighted dew chamber at 20° C.) to permit spores to germinate and infect the leaf. The plants were then transferred to a greenhouse set at 20° C. for disease to develop. When disease symptoms were fully expressed on the 1st leaves of untreated plants, infection levels were assessed on a scale of 0 to 100 percent disease severity. Percent disease control was calculated using the ratio of disease severity on treated plants relative to untreated plants. Example F: Evaluation of Fungicidal Activity: Powdery Mildew of Cucumber (Erysiphe cichoracearum; Bayer Code […]) Cucumber seedlings (variety Bush Pickle) were grown in soil-less Metro mix, with one plant per pot, and used in the test when 12 to 14 days old. Plants were inoculated with a spore suspension 24 hr following fungicide treatments. After inoculation the plants remained in the greenhouse set at 20° C. until disease was fully expressed. Fungicide formulation, application and disease assessment on the sprayed leaves followed the procedures as described in the Example A.

In experiment [3] the test system is Alternaria solani. In words: Tomato Early Blight (ALTESO) fungicidal activity. The settings on record: 24 h, 1DP (1 Day Protectant), read-out: ALTESO Disease Control. Here is the method:
Technical grades of materials were dissolved in acetone, which were then mixed with nine volumes of H2O containing 110 ppm Triton X-100. The fungicide solutions were applied onto wheat seedlings using an automated booth sprayer to run-off. All sprayed plants were allowed to air dry prior to further handling. All fungicides were evaluated using the aforementioned method for their activity vs. all target diseases, unless stated otherwise. Wheat leaf blotch and brown rust activity were also evaluated using track spray applications, in which case the fungicides were formulated as EC formulations, containing 0.1% Trycol 5941 in the spray solutions. Wheat plants (variety Yuma) were grown from seed in a greenhouse in 50% mineral soil/50% soil-less Metro mix until the first leaf was fully emerged, with 7-10 seedlings per pot. These plants were inoculated with an aqueous spore suspension of Zymoseptoria tritici either prior to or after fungicide treatments. After inoculation the plants were kept in 100% relative humidity (one day in a dark dew chamber followed by two to three days in a lighted dew chamber at 20° C.) to permit spores to germinate and infect the leaf. The plants were then transferred to a greenhouse set at 20° C. for disease to develop. When disease symptoms were fully expressed on the 1st leaves of untreated plants, infection levels were assessed on a scale of 0 to 100 percent disease severity. Percent disease control was calculated using the ratio of disease severity on treated plants relative to untreated plants. Example M: Evaluation of Fungicidal Activity: Tomato Early Blight (Alternaria solani; Bayer Code […]) Tomato plants (variety Outdoor Girl) were propagated in soil-less Metro mix, with each pot having one plant, and used when 12 to 14 days old. Test plants were inoculated with an aqueous spore suspension of Alternaria solani 24 hr after fungicide treatments. After inoculation the plants were kept in 100% relative humidity (one day in a dark dew chamber followed by two to three days in a lighted dew chamber at 20° C.) to permit spores to germinate and infect the leaf. The plants were then transferred to a growth room at 22° C. for disease to develop. Fungicide formulation, application and disease assessment on the sprayed leaves followed the procedures as described in the Example A.

The mark [4] stands for this setting: 24 h, 1 day protectant, read-out: PUCCRT disease control, 1DP (1 Day Protectant).
[5] abbreviates: 72 h, 3 day curative, read-out: PUCCRT disease control, 3DC (3 Day Curative).

The values below come from US20180002319A1, “MACROCYCLIC PICOLINAMIDE COMPOUNDS WITH FUNGICIDAL ACTIVITY” (DOW AGROSCIENCES LLC, priority 2014, published 2018).

Like-named read-outs stand apart in the source and are kept apart here.

Turning to `CCCCO[C@H]1CCOC[C@H](NC(=O)c2nccc(OC)c2OCOC(C)=O)C(=O)O[C@@H](C)[C@@H]1OCc1ccccc1` [Compound 2], the pest or weed control at 100 ppm in experiment [1] (setting [4]) is more than 80%; in experiment [1] (setting [5]), more than 80%; in experiment [2], less than 80%; in experiment [3], less than 80%. Moreover, the pest or weed control at 121.5 g/ha in experiment [1] (setting [4]) and in experiment [1] (setting [5]) was more than 80% throughout.
On to `CCCCO[C@H]1CCOC[C@H](NC(=O)c2nccc(OC)c2OCOC(C)=O)C(=O)O[C@@H](C)[C@@H]1OC(=O)C1CC1` [Compound 5], for which the pest or weed control at 100 ppm is more than 80% in experiment [1] (setting [4]), more than 80% in experiment [1] (setting [5]) and less than 80% in experiment [3].
For `COc1ccnc(C(=O)N[C@H]2COCC[C@H](Cc3ccccc3)[C@@H](OCC(C)C)[C@H](C)OC2=O)c1OCOC(C)=O` [Compound 20], the pest or weed control at 121.5 g/ha in experiment [1] (setting [4]) and in experiment [1] (setting [5]) was more than 80% in each case. The pest or weed control at 100 ppm was less than 80% in experiment [2] and more than 80% in experiment [3].
As to `COc1ccnc(C(=O)N[C@H]2COCC[C@@H](OCC(C)C)[C@@H](OCC(C)C)[C@H](C)OC2=O)c1OCOC(C)=O` [Compound 6], the pest or weed control at 100 ppm was more than 80% in experiment [1] (setting [4]), more than 80% in experiment [1] (setting [5]) and less than 80% in experiment [3].
Take `CCCCO[C@H]1CCOC[C@H](NC(=O)c2nccc(OC)c2OCOC(C)=O)C(=O)O[C@@H](C)[C@@H]1OC(=O)C(C)C` [Compound 3]: the pest or weed control at 100 ppm in experiment [1] (setting [4]), in experiment [1] (setting [5]) and in experiment [3] was more than 80% each time.
On to `CCCCCO[C@H]1[C@H](C)OC(=O)[C@@H](NC(=O)c2nccc(OC)c2OCOC(C)=O)CCCC[C@@H]1Oc1ccccc1` [Compound 17], for which the pest or weed control at 100 ppm is more than 80% in experiment [1] (setting [4]), more than 80% in experiment [1] (setting [5]), less than 80% in experiment [2] and more than 80% in experiment [3].
`CCCO[C@H]1[C@H](C)OC(=O)[C@@H](NC(=O)c2nccc(OC)c2OCOC(C)=O)CCCC[C@@H]1Oc1ccccc1` [Compound 18]: the pest or weed control at 100 ppm in experiment [1] (setting [4]) was more than 80%; in experiment [1] (setting [5]), more than 80%; in experiment [2] it was less than 80%; in experiment [3], more than 80%.
Consider `COc1ccnc(C(=O)N[C@H]2CCCC[C@H](Oc3ccccc3)[C@@H](Oc3ccccc3)[C@H](C)OC2=O)c1OCOC(C)=O` [Compound 19], for which the pest or weed control at 100 ppm in experiment [1] (setting [4]) was more than 80%; in experiment [1] (setting [5]) it was more than 80%; in experiment [2], less than 80%; in experiment [3], more than 80%. The pest or weed control at 121.5 g/ha in experiment [1] (setting [4]) and in experiment [1] (setting [5]) was more than 80% throughout.
`COc1ccnc(C(=O)N[C@H]2CCOC[C@H](Oc3ccccc3)[C@@H](Oc3ccccc3)[C@H](C)OC2=O)c1OCOC(C)=O` [Compound 37]: the pest or weed control at 121.5 g/ha in experiment [1] (setting [4]) and in experiment [1] (setting [5]) was more than 80% throughout.
With `CCCCO[C@H]1CCOC[C@H](NC(=O)c2nccc(OC)c2OCOC(C)=O)C(=O)O[C@@H](C)[C@@H]1OC(=O)c1ccccc1` [Compound 4], the pest or weed control at 100 ppm in experiment [1] (setting [4]), in experiment [1] (setting [5]) and in experiment [3] was more than 80% each time. Besides, the pest or weed control at 121.5 g/ha in experiment [1] (setting [4]) and in experiment [1] (setting [5]) was more than 80% in each case.
For the compound `COc1ccnc(C(=O)N[C@H]2COCC[C@H](Cc3ccccc3)[C@@H](OCC(C)C)[C@H](C)OC2=O)c1OC(C)=O` [Compound 21], the pest or weed control at 121.5 g/ha in experiment [1] (setting [4]) and in experiment [1] (setting [5]) was more than 80% in each case. Besides, the pest or weed control at 100 ppm in experiment [2] is less than 80%; in experiment [3], more than 80%.
